Several values for one entry are separate records, joined by “and”; a condition that tells them apart may be missing. Equal entries are not always repeated.
System: 299254-011-R-J1-PDC complex spheroids viability
Experiment: Anticancer human tumor 299254-011-R-J1-PDC patient-derived melanoma cell line growth inhibition [GQUAD]
Conditions: for viability, T/C: stronger effect = lower value; active = viability on the fitted dose curve at most 10% of control; inactive = the rest
Excerpt: DNA G-quadruplex Stabilizer Agents in Combinations in Complex Spheroids
A high-throughput screen of multi-cell type tumor spheroids was designed to identify active combinations of DNA G-quadruplex stabilizer agents and targeted small molecules. Complex spheroids include a stromal component modeled by human endothelial cells (HUVEC) and fibroblasts modeled by human mesenchymal stem cells (MSCs). The concentration ranges selected for each drug and investigational agent were based upon clinically achievable concentrations if the clinical Cmax of the agent was known.
Compounds. The drugs and investigational agents: pidnarulex (CX-5461; NSC782164), APTO-253 (NSC789042), BRACO-19 (NSC847499), peposertib (NSC802822), ceralasertib (NSC780249), elimusertib (NSC800525), camonsertib (NSC841442), AZD-1390 (NSC803789), olaparib (NSC753686), talazoparib (NSC767125), ART-558 (NSC835418), sotorasib (NSC818433), MRTX-1133 (NSC836407), SN-38 (NSC673596), topotecan (NSC609699), etoposide (NSC141540), doxorubicin (NSC123127), gemcitabine (NSC613327), 5-fluorouracil (NSC19893), paclitaxel (NSC125973), vemurafenib (NSC761431), panobinostat (NSC761190), R-306465 (JNJ-16241199; NSC773264), adavosertib (NSC754352), TP-3654 (NSC805149), carboplatin (NSC241240), KSQ-4279 (NSC840948), and staurosporine (NSC755774) were obtained from the National Cancer Institute (NCI) Developmental Therapeutics Program Chemical Repository (34). The FDA-approved anticancer drug set is available from the NCI Developmental Therapeutics Program. […] The stock solutions were prepared in dimethyl sulfoxide (DMSO, Sigma-Aldrich, St. Louis, MO, cat. D2650) at 800-fold the tested concentration and stored at -70 degrees C prior to their use. All drugs and investigational agents were tested over a range starting from a high concentration at or near the clinical Cmax and decreasing in half-log increments. If the clinical Cmax for an agent had not been determined, the highest concentration tested was 10 microM.
2.3 Cell Culture. All cells were maintained in an incubator at 37 degrees C and 5% CO2 with 95% humidity. The PDC lines were cultured according to standard operating procedures established by the NCI PDMR. All PDCs were thawed and cultured in Matrigel-coated flasks prepared with a working solution of 1X Ham's F-12 nutrient mix, without supplementation (Invitrogen, cat. 11765054), 100 U/mL penicillin-streptomycin (Invitrogen, cat. 15140122), and 2.5% Matrigel (Corning Inc., cat. 354248) for the first three passages. The 857933-349-R-J2-PDC line was cultured in 6C/Colon 1B media, which includes advanced DMEM/F-12 (Thermo Fisher Scientific, cat. 12634028), 10 mM HEPES (Thermo Fisher Scientific, cat. 15630080), 1X GlutaMAX supplement (Thermo Fisher Scientific, cat. 35050061), 0.1 mg/mL primocin (InvivoGen, cat. ant-pm-2), 10% defined fetal bovine serum, heat inactivated (HyClone Laboratories Inc., cat. SH30070.03HI), 50% L-WRN conditioned media (ATCC, cat. CRL-3276), 1.25 mM N-Acetyl-L-cysteine (Sigma-Aldrich, cat. A9165), 10 mM nicotinamide (Sigma-Aldrich, cat. N0636), 1X B-27 supplement (Thermo Fisher Scientific, cat. 17504044), 1X N-2 supplement (Thermo Fisher Scientific, cat. 17502048), 10 microM Y-27632 dihydrochloride (Tocris Bioscience, cat. 1254), and 50 ng/mL human EGF recombinant protein (Thermo Fisher Scientific, cat. PHG0311). The 485176-168-R4-J1-PDC line was cultured in Panc media, which includes all 6C/Colon 1B media components plus 100 ng/mL human FGF-10 (Thermo Fisher Scientific, cat. 100-26), 500 nM SB-431542 (Selleckchem, cat. S1067), and gastrin (Tocris, cat. 3006).
[…]

[1] = curve of first compound, second compound 0.0316 µM
[2] = curve of first compound, second compound 0.1 µM
[3] = curve of first compound, second compound 0.316 µM
[4] = curve of first compound, second compound 1 µM
[5] = curve of first compound, second compound 3.16 µM
[6] = curve of first compound, second compound 10 µM
[7] = second compound 0.0316 µM, first compound 0.0316 µM
[8] = second compound 0.0316 µM, first compound 0.1 µM
[9] = second compound 0.0316 µM, first compound 0.316 µM
[10] = second compound 0.0316 µM, first compound 1 µM
[11] = second compound 0.0316 µM, first compound 3.16 µM
[12] = second compound 0.0316 µM, first compound 10 µM
[13] = second compound 0.1 µM, first compound 0.0316 µM
[14] = second compound 0.1 µM, first compound 0.1 µM
[15] = second compound 0.1 µM, first compound 0.316 µM
[16] = second compound 0.1 µM, first compound 1 µM
[17] = second compound 0.1 µM, first compound 3.16 µM
[18] = second compound 0.1 µM, first compound 10 µM
[19] = second compound 0.316 µM, first compound 0.0316 µM
[20] = second compound 0.316 µM, first compound 0.1 µM
[21] = second compound 0.316 µM, first compound 0.316 µM
[22] = second compound 0.316 µM, first compound 1 µM
[23] = second compound 0.316 µM, first compound 3.16 µM
[24] = second compound 0.316 µM, first compound 10 µM
[25] = second compound 1 µM, first compound 0.0316 µM
[26] = second compound 1 µM, first compound 0.1 µM
[27] = second compound 1 µM, first compound 0.316 µM
[28] = second compound 1 µM, first compound 1 µM
[29] = second compound 1 µM, first compound 3.16 µM
[30] = second compound 1 µM, first compound 10 µM
[31] = second compound 3.16 µM, first compound 0.0316 µM
[32] = second compound 3.16 µM, first compound 0.1 µM
[33] = second compound 3.16 µM, first compound 0.316 µM
[34] = second compound 3.16 µM, first compound 1 µM
[35] = second compound 3.16 µM, first compound 3.16 µM
[36] = second compound 3.16 µM, first compound 10 µM
[37] = second compound 10 µM, first compound 0.0316 µM
[38] = second compound 10 µM, first compound 0.1 µM
[39] = second compound 10 µM, first compound 0.316 µM
[40] = second compound 10 µM, first compound 1 µM
[41] = second compound 10 µM, first compound 3.16 µM
[42] = second compound 10 µM, first compound 10 µM
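Note: spheroids exposed to the agents for seven days before readout.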
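Throughout, for viability, T/C: percent viability relative to DMSO vehicle control wells = 100%.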

CCCS(=O)(=O)Nc1ccc(F)c(C(=O)c2c[nH]c3ncc(-c4ccc(Cl)cc4)cc23)c1F
inactive: viability, T/C (compound 0.0316 µM) 130% and 120% and 109% | viability, T/C (compound 0.1 µM) 101% and 98.5% and 102% | viability, T/C (compound 0.316 µM) 92.2% and 107% and 95.9% | viability, T/C (compound 1 µM) 107% and 104% and 112% | viability, T/C (compound 3.16 µM) 80.6% and 104% and 103% | viability, T/C (compound 10 µM) 39.9% and 45.2% and 46.6%
7.69 µM and 9.11 µM and 9.32 µM: IC50 (curve of compound)

CC1COCCN1c1cc(C2(O)CC3CCC(C2)O3)c2cnn(-c3ccn[nH]3)c2n1 (stereo unspecified) + Cc1cnc(CNC(=O)c2c(=O)c3ccc(N4CCCN(C)CC4)nc3n3c2sc2ccccc23)cn1
active: viability, T/C [11] 13% | viability, T/C [12] 3.95% | viability, T/C [16] 14.1% | viability, T/C [17] 9.97% | viability, T/C [18] 4.33% | viability, T/C [23] 11% | viability, T/C [24] 4.06% | viability, T/C [30] 6.33% | viability, T/C [36] 7.02% | viability, T/C [37] 0.16% | viability, T/C [38] 0.22% | viability, T/C [39] 0.23% | viability, T/C [40] 0.17% | viability, T/C [41] 0.29% | viability, T/C [42] 0.23%
< 0.0316 µM: IC50 [3] | IC50 [4] | IC50 [5] | IC50 [6]
0.0893 µM: IC50 [1]
0.104 µM: IC50 [2]
inactive: viability, T/C [7] 94.4% | viability, T/C [8] 41.6% | viability, T/C [9] 28.7% | viability, T/C [10] 11.4% | viability, T/C [13] 58.6% | viability, T/C [14] 51.5% | viability, T/C [15] 18.6% | viability, T/C [19] 31.4% | viability, T/C [20] 32% | viability, T/C [21] 14.3% | viability, T/C [22] 15.9% | viability, T/C [25] 22.3% | viability, T/C [26] 21% | viability, T/C [27] 17.1% | viability, T/C [28] 12.8% | viability, T/C [29] 14.8% | viability, T/C [31] 18.8% | viability, T/C [32] 22.3% | viability, T/C [33] 17.1% | viability, T/C [34] 10.6% | viability, T/C [35] 13.1%

COc1cccc2c1C(=O)c1c(O)c3c(c(O)c1C2=O)CC(O)(C(=O)CO)CC3OC1CC(N)C(O)C(C)O1 (stereo unspecified) + Cc1[nH]c2ccc(F)cc2c1-c1nc2c3cccnc3c3ncccc3c2[nH]1
4.67 µM: IC50 [1]
4.19 µM: IC50 [2]
inactive: viability, T/C [7] 100% | viability, T/C [8] 91.5% | viability, T/C [9] 82.2% | viability, T/C [10] 90.5% | viability, T/C [11] 62.4% | viability, T/C [12] 25.7% | viability, T/C [13] 91.4% | viability, T/C [14] 91.7% | viability, T/C [15] 88% | viability, T/C [16] 66.4% | viability, T/C [17] 64.7% | viability, T/C [18] 23.8% | viability, T/C [19] 94.2% | viability, T/C [20] 92.1% | viability, T/C [21] 93.3% | viability, T/C [22] 94.7% | viability, T/C [23] 74.4% | viability, T/C [24] 20.4% | viability, T/C [25] 88.9% | viability, T/C [26] 86.9% | viability, T/C [27] 94.2% | viability, T/C [28] 95.3% | viability, T/C [29] 69.1% | viability, T/C [30] 19.3% | viability, T/C [31] 89.9% | viability, T/C [32] 91.7% | viability, T/C [33] 90.1% | viability, T/C [34] 70.3% | viability, T/C [35] 50.2% | viability, T/C [36] 13.4% | viability, T/C [37] 90.2% | viability, T/C [38] 91.3% | viability, T/C [39] 82.6% | viability, T/C [40] 83.3% | viability, T/C [41] 42.6% | viability, T/C [42] 11.9%
4.92 µM: IC50 [4]
2.99 µM: IC50 [5]
5.32 µM: IC50 [3]
2.56 µM: IC50 [6]
